Source: ChEMBL document CHEMBL3301472, “MMV Malaria Box HIV and cytotoxicity screening”

Assays:
[1] = MMV: MTT Cytotoxicity Assay Day 3 pi, U87-CD4-CXCR4 cells, % cell death @ 5mM compound; format: toxicity, cell-based; details: human, u87-cd4-cxcr4, 5000 µM
[2] = MMV: MTT Cytotoxicity Assay Day 7 pi of Assay #7 (compound washed out Day 1 pi), U87-CD4-CXCR4 cells, % cell death @ 5mM compound; format: toxicity, cell-based; details: human, u87-cd4-cxcr4, 5000 µM
[3] = MMV: MTT Cytotoxicity Assay Day 7 pi of Assay #10 (NO washout), U87-CD4-CCR5 cells, % cell death @ 5mM compound; format: toxicity, cell-based; details: human, u87-cd4-ccr5, 5000 µM
[4] = MMV: MTT Cytotoxicity Assay Day 7 pi of Assay #11 (NO washout), U87-CD4-CXCR4 cells, % cell death @ 5mM compound; format: toxicity, cell-based; details: human, u87-cd4-cxcr4, 5000 µM
[5] = MMV: MTT Cytotoxicity Assay Day 7 pi of Assay #6 (compound washed out Day 1 pi), U87-CD4-CCR5 cells, % cell death @ 5mM compound; format: toxicity, cell-based; details: human, u87-cd4-ccr5, 5000 µM
[6] = system: Human immunodeficiency virus 1; assay: MMV: HIV CCR5-tropic env JRFL pseudovirus assay produces luciferase signal in lieu of replicating viral particles Day 3 pi, U87-CD4-CCR5, % inhibition at 5 mM compound; format: functional; parameters: dose or concentration left out as unconfirmed; details: Human immunodeficiency virus 1, JR-FL, U87/CD4/CCR5, 72 h
[7] = MMV: MTT Cytotoxicity Assay Day 3 pi, U87-CD4-CCR5 cells, % cell death @ 5mM compound; format: toxicity, cell-based; details: human, u87-cd4-ccr5, 5000 µM
[8] = system: Human immunodeficiency virus 1; assay: MMV: HIV CXCR4-tropic env HxB2 pseudovirus assay produces luciferase signal in lieu of replicating viral particles Day 3 pi, U87-CD4-CXCR4, % inhibition at 5 mM compound; format: functional; parameters: dose or concentration left out as unconfirmed; details: Human immunodeficiency virus 1, HxB2, U87.CD4.CXCR4, 72 h
[9] = system: Human immunodeficiency virus 1; assay: MMV: HIV NL4-3 CXCR4-tropic replication-competent virus, NO washout, P24 ELISA Day 7 pi, U87-CD4-CXCR4, % inhibition at 5 mM compound; format: functional; parameters: dose or concentration left out as unconfirmed; details: Human immunodeficiency virus 1, NL4-3, U87.CD4.CXCR4, 168 h
[10] = system: Human immunodeficiency virus 1; assay: MMV: HIV JRFL CCR5-tropic replication-competent virus, NO washout, P24 ELISA Day 7 pi, U87-CD4-CCR5, % inhibition at 5 mM compound; format: functional; parameters: dose or concentration left out as unconfirmed; details: Human immunodeficiency virus 1, JR-FL, U87/CD4/CCR5, 168 h
[11] = system: Human immunodeficiency virus 1; assay: MMV: HIV NL4-3 CXCR4-tropic replication-competent virus, virus & compound washed out Day 1 pi, P24 ELISA Day 7 pi, U87-CD4-CXCR4, % inhibition at 5 mM compound; format: functional; parameters: dose or concentration left out as unconfirmed; details: Human immunodeficiency virus 1, NL4-3, U87.CD4.CXCR4
[12] = system: Human immunodeficiency virus 1; assay: MMV: HIV CXCR4-tropic env NL4-3 pseudovirus assay produces luciferase signal in lieu of replicating viral particles Day 3 pi, U87-CD4-CXCR4, % inhibition at 5 mM compound; format: functional; parameters: dose or concentration left out as unconfirmed; details: Human immunodeficiency virus 1, NL4-3, U87.CD4.CXCR4, 72 h
[13] = system: Human immunodeficiency virus 1; assay: MMV: HIV JRFL CCR5-tropic replication-competent virus, virus & compound washed out Day 1 pi, P24 ELISA Day 7 pi, U87-CD4-CCR5, % inhibition at 5 mM compound; format: functional; parameters: dose or concentration left out as unconfirmed; details: Human immunodeficiency virus 1, JR-FL

Structure (SMILES) | % Cell Death [1] | % Cell Death [2] | % Cell Death [3] | % Cell Death [4] | % Cell Death [5] | inhibition [6] [%] | % Cell Death [7] | inhibition [8] [%] | inhibition [9] [%] | inhibition [10] [%] | inhibition [11] [%] | inhibition [12] [%] | inhibition [13] [%]
Cc1ccccc1OCCSc1nc2ccc(NC(=O)c3ccccc3)cc2s1 | 36 | 1 | 106 | 100 | 31 | 10 | 96 | – | – | – | – | – | –
CCCCCCOC(=O)C1=C(C)NC(=O)NC1c1ccccc1F (stereo not drawn) | 29 | -33 | 40 | -34 | -10 | -2 | 16 | 3 | – | – | – | – | –
c1ccc(CNc2nc(Nc3ccccc3)nc3ccccc23)cc1 | 53 | -7 | 27 | 0 | -8 | 6 | 36 | 9 | -2 | – | – | – | –
COc1ccc(-c2nonc2NC(=O)c2cccc(Cl)c2)cc1OC | 45 | 49 | 100 | 97 | 13 | -2 | 61 | – | – | – | – | – | –
COc1ccc(C(=O)Nc2ccc(Cl)cc2C(=O)Nc2ccncc2)cc1 | 22 | -11 | 0 | 33 | -7 | – | 14 | – | – | 0 | – | – | –
COc1cccc(C2(C)Nc3ccccc3-c3nc4ccccc4n32)c1 (stereo not drawn) | 28 | 25 | 35 | 92 | 37 | 9 | -22 | – | – | – | – | – | –
Br.CCN(CC)S(=O)(=O)c1ccc(-c2csc(Nc3ccc(C)c(C)c3)n2)cc1 | 29 | -19 | 26 | 11 | 20 | -2 | -17 | – | – | – | 3 | – | –
Cc1sc(NC(=O)c2ccco2)c(C(c2cccnc2)N2CCC(Cc3ccccc3)CC2)c1C (stereo not drawn) | 88 | 94 | 107 | 104 | 81 | 8 | 110 | – | – | – | – | – | –
Cc1ccc(OCCCCCCNCCO)c(C)c1 | 28 | -10 | 15 | -10 | 30 | -2 | -3 | – | – | – | – | – | –
O=C(NC1CCN(Cc2ccccc2)CC1)c1cc(-c2cccnc2)nc2ccc(Cl)cc12 | 34 | -10 | 43 | 40 | 11 | 8 | -9 | 8 | – | – | – | – | –
Cc1ccc(C(=O)c2oc3ccc4c(C)cc(=O)oc4c3c2C)cc1 | 94 | 22 | 83 | 92 | 7 | – | 59 | – | – | 8 | – | – | –
CCN1CCN(c2cc(C)c3cc(NC(=O)c4ccc(OC)c(OC)c4)ccc3n2)CC1 | 36 | 61 | 43 | 55 | 93 | – | 95 | – | – | -2 | – | – | –
CC(=O)Nc1nnc(SCc2c(C)cc(C(C)(C)C)cc2C)s1 | 27 | 10 | 3 | 6 | 3 | 8 | 14 | – | – | – | – | – | –
CCN1CCN(Cc2ccc(NC(=O)c3cc4ccc5cccnc5c4[nH]3)cc2)CC1 | 22 | -2 | 9 | 26 | 38 | – | -23 | – | – | 3 | – | – | –
Cc1cc(N(C)C)nc(Nc2ccc(NC(=O)Nc3ccccc3)cc2)n1 | 40 | -7 | 18 | -30 | -5 | – | 12 | – | – | 4 | – | – | –
CCc1c(C)c(=N)c2ccccc2n1C.I | 100 | -17 | -10 | -5 | 30 | – | 22 | – | – | 8 | – | – | –
Nc1ccc(-c2nc3cc(Oc4ccc(Oc5ccc6[nH]c(-c7ccc(N)cc7)nc6c5)cc4)ccc3[nH]2)cc1 | 51 | 68 | 113 | 21 | 12 | 4 | 21 | – | – | – | – | – | –
Cc1cc(C)c2c(c1)OCN(Cc1ccccc1Cl)C2 | 31 | -14 | -6 | 33 | 20 | – | -12 | – | – | -2 | – | – | –
CCOC(=O)c1cnc2ccc(OC)cc2c1Nc1ccc(N2CCN(C)CC2)cc1 | 37 | 17 | 11 | -14 | 5 | -2 | -13 | -1 | – | – | 8 | 6 | –
CN(C)CCCNc1c2ccccc2nc2ccccc12 | 21 | 15 | 30 | -4 | 8 | – | 30 | – | – | 3 | – | 1 | –
COc1ccc(C(=O)Nc2nonc2-c2ccc(OC)c(OC)c2)cc1Cl | 47 | 53 | 100 | 67 | 13 | 5 | 64 | 9 | – | – | – | – | 6
